The values that follow come from US20180110824A1, “Macrocyclic Modulators of the Ghrelin Receptor” (Ocera Therapeutics, Inc., priority 2016, published 2018).

For assay [1], the target named is T1, human ghrelin receptor (hGHS-R1a) (Homo sapiens, UniProt Q92847).
T1 construct: host or cells: CHO-K1 co-expressing Gα16 and mitochondrially targeted aequorin
Description: Aequorin functional assay (ghrelin receptor), CHO-K1 cells co-expressing Gα16 and aequorin. Particulars: Table 4; functional (agonist) activity; TFA salts unless otherwise noted; read-out: EC50. The assay is classed as cell-based. As to the method: This cell line is typically constructed by transfection of the human ghrelin receptor into CHO-K1 cells co-expressing Gα16 and the mitochondrially targeted Aequorin (Ref #ES-WT-A5). • 1. […] Assay buffer: DMEM (Dulbecco's Modified Eagles Medium) containing 0.1% BSA (bovine serum albumin; pH 7.0). • 3. Coelenterazine (Molecular Probes, Leiden, The Netherlands). • Final test concentrations (N=8) for compounds of the invention: 10, 1, 0.3, 0.1, 0.03, 0.01, 0.003, 0.001 μM.
Stock solutions of compounds (10 mM in 100% DMSO) were provided frozen on dry ice and stored at −20° C. prior to use. […] Assay plates were then prepared by appropriate dilution in DMEM medium containing 0.1% BSA. Under these conditions, the maximal final DMSO concentration in the assay was <0.6%.
AequoScreen™ cells were collected from culture plates with Ca^2+ and Mg^2+-free phosphate buffered saline (PBS) supplemented with 5 mM EDTA, pelleted for 2 min at 1000×g re-suspended in DMEM—Ham's F12 containing 0.1% BSA at a density of 5×10^6 cells/mL, and incubated O/N at rt in the presence of 5 μM coelenterazine. After loading, cells were diluted with assay buffer to a concentration of 5×10^5 cells/mL.
For agonist testing, 50 μL of the cell suspension was mixed with 50 μL of the appropriate concentration of test compound or ghrelin (reference agonist) in 96-well plates (duplicate samples). Ghrelin (reference agonist) was tested at several concentrations concurrently with the test compounds in order to validate the experiment. The emission of light resulting from receptor activation in response to ghrelin or test compounds was recorded using the Hamamatsu FDSS 6000 reader (Hamamatsu Photonics K.K., Japan).
Results were expressed as Relative Light Units (RLU). […] EC50, Hill slope and % Emax values are reported.
• 1. Assay performed on CHO-K1 cells expressing the transfected, cloned human ghrelin receptor (hGHS-R1a) and Gα16. • 2. Suspended cells incubated O/N with coelenterazine. • 3. Stimulation of hGHS-R1a activates Gα16, causing […] Ca2+ release which ultimately leads to the oxidation of coelenterazine and the emission of a quantitative luminescent signal. • 4. Ghrelin was used as the positive control. • 5.

Assay [2] deals with T2, human growth hormone secretagogue receptor (hGHS-R1a) (Homo sapiens, UniProt Q92847).
T2 construct: purchased PerkinElmer BioSignal #RBHGHSM; host or cells: HEK-293, stably transfected
Description: Competitive radioligand binding assay (ghrelin receptor), [125I]-ghrelin displacement on GHS-R/HEK 293 membranes. The conditions noted are these: read-out: Ki.

The mark [3] stands for this setting: Table 3B, binding activity at the human ghrelin receptor.

pEC50, pKi: −log10 of the molar value. Read-outs that look alike come from different tables or passages of the source.

T2 sequence (Q92847 whole entry): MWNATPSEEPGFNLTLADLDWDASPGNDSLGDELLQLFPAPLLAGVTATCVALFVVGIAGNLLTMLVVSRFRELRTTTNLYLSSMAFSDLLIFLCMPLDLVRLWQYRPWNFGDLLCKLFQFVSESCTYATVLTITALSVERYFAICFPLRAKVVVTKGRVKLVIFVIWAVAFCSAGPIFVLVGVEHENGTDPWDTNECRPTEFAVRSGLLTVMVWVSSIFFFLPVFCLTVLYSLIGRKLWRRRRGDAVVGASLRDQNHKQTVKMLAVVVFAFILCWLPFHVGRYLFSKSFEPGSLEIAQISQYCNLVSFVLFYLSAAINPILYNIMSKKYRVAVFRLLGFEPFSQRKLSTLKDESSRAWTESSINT
T1 sequence (Q92847 whole entry): as above

For the compound `CCC(C)[C@@H]1NC[C@@H](C)Oc2ccccc2CCCNC(=O)[C@H](Cc2cccc(Cl)c2)NC(=O)C2(CCCC2)NC1=O` (stereo partly shown) [368a], the pEC50 (as a rule, the EC50 on a negative log10 scale, so that one unit is a factor of ten) in assay [1] was less than 6.00. Further, the pKi (commonly −log10 of the Ki, conventionally taken in molar units) in assay [2] (setting [3]) was 7.00 to 8.00; in assay [2] (Table 4, TFA salts unless otherwise noted), 8.00 to 10.00.
With `CCC(C)C1NCCOc2ccccc2C=CCNC(=O)C(Cc2ccsc2)NC(=O)C2(CCCC2)NC1=O` (stereo not shown) [compound 333], the pKi in assay [2] (setting [3]) was 6.00 to 7.00.
As to `CO[C@H](C)[C@@H]1NCCOc2ccccc2CCCNC(=O)[C@@H](Cc2ccc(F)cc2)NC(=O)[C@@H](C)N(C)C1=O` [compound 335], the negative logarithm of the Ki (pKi) in assay [2] (setting [3]) was 7.00 to 8.00.
Take `COC[C@@H]1NCCOc2ccccc2CCCNC(=O)[C@@H](Cc2ccc(F)cc2)NC(=O)[C@@H](C)N(C)C1=O` [compound 336]: the pKi in assay [2] (setting [3]) was 6.00 to 7.00.
On the same count and under the same terms, the value for `C[C@@H]1C(=O)N[C@H](Cc2ccc(F)cc2)C(=O)NCCCc2ccccc2OCCN[C@@H](CN)C(=O)N1C` [compound 337] was 6.00 to 7.00; that for `C[C@@H]1C(=O)N[C@H](Cc2ccc(F)cc2)C(=O)NCCCc2ccccc2OCCN[C@@H](CCN)C(=O)N1C` [compound 338] was 6.00 to 7.00.
On the same count and under the same terms, as for `C[C@@H]1C(=O)N[C@H](Cc2ccc(F)cc2)C(=O)NCCCc2ccccc2OCCN[C@@H](CCCN)C(=O)N1C` [compound 339], the figure is 6.00 to 7.00.
As for `CSCC[C@@H]1NCCOc2ccccc2CCCNC(=O)[C@@H](Cc2ccc(F)cc2)NC(=O)[C@@H](C)N(C)C1=O` [compound 340], the pKi in assay [2] (setting [3]) was 7.00 to 8.00.
Same read-out and setting: the value for `O=C1NC2(CCCC2)C(=O)N[C@@H](Cc2cccc(Cl)c2)C(=O)NC/C=C/c2ccccc2OCCN[C@H]1Cc1ccsc1` [compound 341] was 7.00 to 8.00.
For `N#Cc1ccccc1C[C@@H]1NCCOc2ccccc2/C=C/CNC(=O)[C@H](Cc2cccc(Cl)c2)NC(=O)C2(CCCC2)NC1=O` [compound 342], the pKi in assay [2] (setting [3]) was 6.00 to 7.00.
Still for that read-out and setting: as for `COC[C@@H]1NCCOc2ccccc2/C=C/CNC(=O)[C@H](Cc2cccc(Cl)c2)NC(=O)C2(CCCC2)NC1=O` [compound 344], the figure is 6.00 to 7.00; as for `O=C1NC/C=C/c2ccccc2OCCN[C@@H](C2CC2)C(=O)NC2(CCCC2)C(=O)N[C@H]1Cc1cccc(Cl)c1` [compound 346], 6.00 to 7.00; as for `C[C@@H]1C(=O)N[C@H](Cc2ccc(F)cc2)C(=O)NCCCc2cc(F)ccc2OCCN[C@@H](C2CC2)C(=O)N1C` [compound 355], 7.00 to 8.00.
Still for that read-out and setting: as for `C[C@@H]1C(=O)N[C@H](Cc2ccc(F)cc2)C(=O)NCCCc2cc(C(F)(F)F)ccc2OCCN[C@@H](C2CC2)C(=O)N1C` [compound 356], the figure is 6.00 to 7.00; as for `C[C@@H]1C(=O)N[C@H](Cc2ccc(F)cc2)C(=O)NCCCc2ccc(NS(C)(=O)=O)cc2OCCN[C@@H](C2CC2)C(=O)N1C` [compound 357], 6.00 to 7.00; as for `CC[C@H](C)[C@@H]1NCCOc2ccccc2C(C)(C)CCNC(=O)[C@H](Cc2cccc(Cl)c2)NC(=O)C2(CCCC2)NC1=O` [compound 359], 6.00 to 7.00.
For the compound `CC[C@H](C)[C@@H]1NCCOCC=CCCNC(=O)[C@H](Cc2cccc(Cl)c2)NC(=O)C2(CCCC2)NC1=O` [compound 360], in assay [2] (setting [3]), the pKi was 6.00 to 7.00.
Consider `CCC(C)C1NCCCc2ccccc2C=CCCNC(=O)C(Cc2cccc(Cl)c2)NC(=O)C2(CCCC2)NC1=O` (stereo not shown) [compound 361], for which, in assay [2] (setting [3]), the pKi was 6.00 to 7.00.
The same measure, in the same setting: the value for `CC[C@H](C)[C@@H]1NCc2ccccc2CCCCCNC(=O)[C@H](Cc2cccc(Cl)c2)NC(=O)C2(CCCC2)NC1=O` [compound 362] was 6.00 to 7.00.
`CC[C@H](C)[C@@H]1NCCCCCCNC(=O)[C@H](Cc2cccc(Cl)c2)NC(=O)C2(CCCC2)NC1=O` [compound 365]: the pKi in assay [2] (setting [3]) was 6.00 to 7.00.
The same measure, in the same setting: as for `CC[C@H](C)[C@@H]1NCCCCCCCNC(=O)[C@H](Cc2cccc(Cl)c2)NC(=O)C2(CCCC2)NC1=O` [compound 366], the figure is 6.00 to 7.00; as for `CCC(C)C1NCCOCCCCCNC(=O)C(Cc2cccc(Cl)c2)NC(=O)C2(CCCC2)NC1=O` (stereo not shown) [compound 370], 6.00 to 7.00; as for `CC[C@H](C)[C@@H]1NCCCc2ccccc2CCCCNC(=O)[C@H](Cc2cccc(Cl)c2)NC(=O)C2(CCCC2)NC1=O` [compound 371], 7.00 to 8.00.
For the compound `C[C@@H]1C(=O)N[C@H](Cc2ccc(F)cc2)C(=O)NCCCc2cc(Cl)ccc2OCCN[C@@H](C2CC2)C(=O)N1C` [compound 373], the negative logarithm of the Ki (pKi) in assay [2] (setting [3]) is 7.00 to 8.00.
`CC1CCNC(=O)[C@@H](Cc2ccc(F)cc2)NC(=O)[C@@H](C)N(C)C(=O)[C@H](C2CC2)NCCOc2ccccc21` (stereo partly shown) [compound 375]: the pKi in assay [2] (setting [3]) is 6.00 to 7.00.
The same measure, in the same setting: as for `CC1CNC(=O)[C@@H](Cc2ccc(F)cc2)NC(=O)[C@@H](C)N(C)C(=O)[C@H](C2CC2)NCCOc2ccccc2C1` (stereo partly shown) [compound 376], the figure is 6.00 to 7.00; as for `C[C@@H]1C(=O)N[C@H](Cc2ccc(F)cc2)C(=O)NCCC(C)(C)c2ccccc2OCCN[C@@H](C2CC2)C(=O)N1C` [compound 378], 6.00 to 7.00; as for `CC1C(=O)NC(Cc2ccc(F)cc2)C(=O)NCC2CC2c2ccccc2OCCNC(C2CC2)C(=O)N1C` (stereo not shown) [compound 379], 7.00 to 8.00.
In the case of `CC[C@H](C)[C@@H]1NCCOc2ccccc2/C=C\CNC(=O)[C@H](Cc2cccc(Cl)c2)NC(=O)C2(CCCC2)NC1=O` [compound 380], the pKi in assay [2] (setting [3]) is 6.00 to 7.00.
Turning to `CC[C@H](C)[C@@H]1NCCOc2ccccc2C#CCNC(=O)[C@H](Cc2cccc(Cl)c2)NC(=O)C2(CCCC2)NC1=O` [compound 381], in assay [2] (setting [3]), the pKi was 7.00 to 8.00.
Take `CC[C@H](C)[C@@H]1NCCOc2cc(F)ccc2CCCNC(=O)[C@H](Cc2cccc(Cl)c2)NC(=O)C2(CCCC2)NC1=O` [compound 383]: the pKi in assay [2] (setting [3]) was 6.00 to 7.00.
Still for that read-out and setting: the value for `CC[C@H](C)[C@@H]1NCCOc2ccc(Cl)cc2CCCNC(=O)[C@H](Cc2cccc(Cl)c2)NC(=O)C2(CCCC2)NC1=O` [compound 384] was 6.00 to 7.00.
The same measure, in the same setting: the value for `CC[C@H](C)[C@@H]1NCCOc2cccnc2CCCNC(=O)[C@H](Cc2cccc(Cl)c2)NC(=O)C2(CCCC2)NC1=O` [compound 385] was 6.00 to 7.00; that for `CC[C@H](C)[C@@H]1NCCOc2ccccc2C(C)CCNC(=O)[C@H](Cc2cccc(Cl)c2)NC(=O)C2(CCCC2)NC1=O` (stereo partly shown) [compound 386] was 6.00 to 7.00.
The same measure, in the same setting: the value for `CC[C@H](C)[C@@H]1NCCOc2ccccc2[C@@H]2C[C@@H]2CNC(=O)[C@H](Cc2cccc(Cl)c2)NC(=O)C2(CCCC2)NC1=O` [compound 387] was 6.00 to 7.00; that for `CC[C@H](C)[C@@H]1NCCCNCCNC(=O)[C@H](Cc2cccc(Cl)c2)NC(=O)C2(CCCC2)NC1=O` [compound 390] was 6.00 to 7.00; that for `C[C@@H]1C(=O)N[C@H](Cc2cc(F)c(F)c(F)c2)C(=O)NCCCc2ccccc2OCCN[C@@H](C2CC2)C(=O)N1C` [compound 391] was 8.00 to 10.00.
Consider `CC[C@H](C)[C@@H]1NCCOc2ccccc2CC(C)CNC(=O)[C@H](Cc2cccc(Cl)c2)NC(=O)C2(CCCC2)NC1=O` (stereo partly shown) [compound 392], for which, in assay [2] (setting [3]), the pKi is 7.00 to 8.00.
On the same count and under the same terms, the value for `CC[C@H](C)[C@@H]1NCCOCCOCCNC(=O)[C@H](Cc2cccc(Cl)c2)NC(=O)C2(CCCC2)NC1=O` [compound 393] was 6.00 to 7.00.
As to `C[C@@H]1C(=O)N[C@H](Cc2cccc(Cl)c2)C(=O)NC/C=C/c2ccccc2OCCNC2(CCCC2)C(=O)N1C` [compound 396], the negative logarithm of the Ki (pKi) in assay [2] (Table 3C) was 7.00 to 8.00.
On the same count and under the same terms, as for `C[C@H]1C(=O)N[C@H](Cc2cccc(Cl)c2)C(=O)NC/C=C/c2ccccc2OCCNC2(CCCC2)C(=O)N1C` [compound 397], the figure is 6.00 to 7.00.
In the case of `C[C@@H]1C(=O)N[C@H](Cc2ccc(F)cc2)C(=O)NCCCCCOCCN[C@@H](C2CC2)C(=O)N1C` [compound 398], the pKi in assay [2] (setting [3]) was 6.00 to 7.00.
Take `C[C@@H]1C(=O)N[C@H](Cc2ccc(F)cc2)C(=O)NC/C=C\c2ccccc2OCCN[C@@H](C2CC2)C(=O)N1C` [compound 400]: in assay [2] (setting [3]), the pKi is 7.00 to 8.00.
On to `CC(C)C[C@@H]1NC[C@@H](C)Oc2ccccc2CCCNC(=O)[C@H](Cc2cccc(Cl)c2)NC(=O)C2(CCCC2)NC1=O` [compound 438], for which the pKi in assay [2] (Table 3D) was 5.00 to 6.00.
Same read-out and setting: the value for `CC[C@H](C)[C@@H]1NCCOc2ccccc2CCCNC(=O)[C@@H](Cc2ccc(F)cc2)NC(=O)[C@@H](COCc2ccccc2)N(C)C1=O` [compound 440] was 6.00 to 7.00; that for `CCCC1NCCOc2ccccc2CCCNC(=O)C(C(C)c2ccccc2)NC(=O)CN(C)C1=O` (stereo not shown) [compound 448] was 5.00 to 6.00; that for `CC[C@H](C)[C@@H]1NCCOc2ncccc2CCCNC(=O)[C@H](Cc2cccc(Cl)c2)NC(=O)C2(CCCC2)NC1=O` [compound 449] was 5.00 to 6.00.
